test system: asymmetric di-methyl PABP1 in RKO cells; assay: RKO methylation assay (In Cell Western, asymmetric di-methyl PABP1); format: cell-based; conditions: Homo sapiens, 48 hours incubation, read-out: Cellular IC50
From the text: RKO adherent cells were purchased from ATCC (American Type Culture Collection), Manassas, Va., USA. DMEM/Glutamax medium, penicillin-streptomycin, heat inactivated fetal bovine serum, 0.05% trypsin and D-PBS were purchased from Life Technologies, Grand Island, N.Y., USA. Odyssey blocking buffer, 800CW goat anti-rabbit IgG (H+L) antibody, and Licor Odyssey infrared scanner were purchased from Licor Biosciences, Lincoln, Nebr., USA. Asymmetric di-methyl PABP1 antibody was purchased from Cell Signaling Technology, Danvers, Mass., USA. Methanol was purchased from VWR, Franklin, Mass., USA. 10% Tween 20 was purchased from KPL, Inc., Gaithersburg, Md., USA. Paraformaldehyde (PFA) was purchased from EM Sciences. DRAQ5 was purchased from Biostatus Limited, Leicestershire, UK. […]
Calculations. First, the ratio for each well was determined by:
Each plate included fourteen control wells of DMSO only treatment (minimum inhibition) as well as fourteen control wells for maximum inhibition treated with 20 μM of a reference compound. The average of the ratio values for each control type was calculated and used to determine the percent […] for each test well in the plate. […]
Percent inhibition was determined and IC50 curves were generated using triplicate wells per concentration of compound.

Row | IC50 [nM] | Structure (SMILES)
1 | 5000 to 10000 | CNCC(O)COc1cc(OC)cc(-c2cc(N3CCOCC3)n3ncc(C4CC4)c3n2)c1 (stereo not shown) [Example 18-6]

molecular target: T1, CARM1 (Homo sapiens, UniProt Q86X55); assay: CARM1 enzyme assay on peptide substrate (3H-SAM Flashplate); format: biochemical; conditions: CARM1 0.25 nM, 3H-SAM 30 nM, peptide 250 nM, 30 min preincubation; read-out: Biochem IC50
T1 construct: Flag-CARM1-His; made in house; host or cells: HEK 293F cells infected with recombinant baculovirus (pFastBacMam)
T1 sequence (Q86X55 1-585 isoform Q86X55-1): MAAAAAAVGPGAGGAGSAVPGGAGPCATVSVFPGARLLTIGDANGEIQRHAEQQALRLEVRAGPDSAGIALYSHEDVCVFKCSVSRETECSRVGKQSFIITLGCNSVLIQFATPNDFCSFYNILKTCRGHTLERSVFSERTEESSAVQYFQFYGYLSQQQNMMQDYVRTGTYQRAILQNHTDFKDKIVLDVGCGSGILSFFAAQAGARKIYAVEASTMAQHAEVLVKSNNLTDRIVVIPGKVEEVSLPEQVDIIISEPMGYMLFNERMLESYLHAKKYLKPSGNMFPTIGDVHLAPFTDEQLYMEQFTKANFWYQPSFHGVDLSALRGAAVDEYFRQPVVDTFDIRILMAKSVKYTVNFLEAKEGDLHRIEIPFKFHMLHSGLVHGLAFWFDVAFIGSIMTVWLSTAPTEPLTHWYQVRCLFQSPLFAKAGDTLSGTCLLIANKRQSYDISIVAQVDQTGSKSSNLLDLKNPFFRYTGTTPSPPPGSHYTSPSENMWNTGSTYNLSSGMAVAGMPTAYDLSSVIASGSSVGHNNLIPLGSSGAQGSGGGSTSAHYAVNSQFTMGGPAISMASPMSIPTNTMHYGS
From the text: S-adenosylmethionine (SAM), S-adenosylhomocysteine (SAH), bicine, Tween20, dimethylsulfoxide (DMSO), bovine skin gelatin (BSG), sodium butyrate and Tris(2-carboxyethyl)phosphine hydrochloride solution (TCEP) were purchased from Sigma-Aldrich at the highest level of purity possible. ^3H-SAM was purchase from American Radiolabeled Chemicals with a specific activity of 80 Ci/mmol. 384-well streptavidin Flashplates were purchased from PerkinElmer.
Peptide representative of human histone H3 residues 16-30 was synthesized with an N-terminal linker-affinity tag motif and a C-terminal amide cap by 21^St Century Biochemicals. The peptide was purified by high-performance liquid chromatography (HPLC) to greater than 95% purity and confirmed by liquid chromatography mass spectrometry (LC-MS). The sequence was Biot-Ahx-[…]-amide and contained a monomethylated arginine at position 26 (SEQ ID NO.:1).
Human CARM1 (PRMT4) (NM_199141.1) transcript clone was amplified from an HEK 293 cDNA library, incorporating a flanking 5′ sequence encoding a FLAG tag ([…]) (SEQ ID NO.:2) fused directly to Ala 2 of CARM1 and 3′ sequence encoding a hexa His sequence ([…]) (SEQ ID NO.:3) fused directly to Ser 608. The gene sequence encoding isoform1 containing a deletion of amino acids 539-561 was amplified subsequently and subcloned into pFastBacMam (Viva Biotech). Protein Expression
Recombinant baculovirus were generated according to Bac-to-Bac kit instructions (Life Technologies). Protein over-expression was accomplished by infecting exponentially growing HEK 293F cell culture at 1.3×10^6 cell/ml with virus (MOI=10) in the presence of 8 mM sodium butyrate. Infections were carried out at 37° C. for 48 hours, harvested by centrifugation, and stored at −80° C. for purification.
Column was washed with 500 mM NaCl in buffer A and Flag-CARM1-His was eluted with 200 ug/ml FLAG peptide in buffer A. Pooled fractions were dialyzed in 20 mM Tris, 150 mM NaCl, 5% glycerol and 1 mM DTT, pH 7.8. The purity of recovered protein was 94.
General Procedure for CARM1 Enzyme Assays on Peptide Substrates
The assays were all performed in a buffer consisting of 20 mM Bicine (pH=7.6), 1 mM TCEP, 0.005% BSG, and 0.002% Tween 20, prepared on the day of use. Compounds in 100% DMSO (1 ul) were spotted into a polypropylene 384-well V-bottom plates (Greiner) using a Platemate Plus outfitted with a 384-channel head (Thermo Scientific). DMSO (1 ul) was added to Columns 11, 12, 23, 24, rows A-H for the maximum signal control and 1 ul of SAH, a known product and inhibitor of CARM1, was added to columns 11, 12, 23, 24, rows I-P for the minimum signal control. A cocktail (40 ul) containing the CARM1 enzyme was added by Multidrop Combi (Thermo-Fisher). The compounds were allowed to incubate with CARM1 for 30 min at room temperature, then a cocktail (10 ul) containing ^3H-SAM and peptide was added to initiate the reaction (final volume=51 ul). The final concentrations of the components were as follows: CARM1 was 0.25 nM, ^3H-SAM was 30 nM, peptide was 250 nM, SAH in the minimum signal control wells was 1 mM, and the DMSO concentration was 2%. The assays were stopped by the addition of non-radiolabeled SAM (10 ul) to a final concentration of 300 uM, which dilutes the ^3H-SAM to a level where its incorporation into the peptide substrate is no longer detectable. 50 ul of the reaction in the 384-well polypropylene plate was then transferred to a 384-well Flashplate and the biotinylated peptides were allowed to bind to the streptavidin surface for at least 1 hour before being washed once with 0.1% Tween20 in a Biotek ELx405 plate washer. The plates were then read in a PerkinElmer TopCount plate reader to measure the quantity of ^3H-labeled peptide bound to the Flashplate surface, measured as disintegrations per minute (dpm) or alternatively, referred to as counts per minute (cpm). […]

Row | Structure (SMILES) | IC50 [nM]
2 | COc1nc(C)cc(C)c1CNc1cc(-c2cccc(OCC(O)CN)c2)nc2c1cnn2C(C)C (stereo not shown) [Example 55-1] | < 100
3 | CNCC(O)COc1cccc(-c2cc(NCCNC(=O)c3cccnc3)c3cnn(C(C)C)c3n2)c1 (stereo not shown) [Example 56-1] | 100 to 1000
4 | CNCC(O)COc1cccc(-c2cc(NCc3c(C)cc(C)nc3OC)c3cnn(C(C)C)c3n2)c1 (stereo not shown) [Example 57-1] | 100 to 1000
5 | CNCC(O)COc1cccc(-c2cc(NCCNC(=O)c3ccn(C)n3)c3cnn(C(C)C)c3n2)c1 (stereo not shown) [Example 58-1] | 100 to 1000
6 | CNCC(O)COc1cccc(-c2cc(NCCCNC(=O)c3cccnc3)c3cnn(C(C)C)c3n2)c1 (stereo not shown) [Example 59-1] | 100 to 1000
7 | CNCC(O)COc1cccc(-c2cc(NCCCCNC(=O)c3cccnc3)c3cnn(C(C)C)c3n2)c1 (stereo not shown) [Example 61-1] | 100 to 1000
8 | CNCC(O)COc1cccc(-c2cc(NCCCCCNC(=O)c3cccnc3)c3cnn(C(C)C)c3n2)c1 (stereo not shown) [Example 63-1] | 100 to 1000
9 | CNCC(O)COc1cccc(-c2cc(NCCCCCCNC(=O)c3cccnc3)c3cnn(C(C)C)c3n2)c1 (stereo not shown) [Example 65-1] | 100 to 1000

Continued, values first:

Row | IC50 [nM] | Structure (SMILES)
10 | 100 to 1000 | CNCC(O)COc1cccc(-c2cc(NCCCNC(=O)c3ccn(C)n3)c3cnn(C(C)C)c3n2)c1 (stereo not shown) [Example 60-1]
11 | 100 to 1000 | CNCC(O)COc1cccc(-c2cc(NCCCCNC(=O)c3ccn(C)n3)c3cnn(C(C)C)c3n2)c1 (stereo not shown) [Example 62-1]
12 | < 100 | CNCC(O)COc1cccc(-c2cc(NCCCCCNC(=O)c3ccn(C)n3)c3cnn(C(C)C)c3n2)c1 (stereo not shown) [Example 64-1]
13 | 100 to 1000 | CNCC(O)COc1cccc(-c2cc(NCCCCCCNC(=O)c3ccn(C)n3)c3cnn(C(C)C)c3n2)c1 (stereo not shown) [Example 66-1]

Source: US9718816B2, “1-phenoxy-3-(alkylamino)-propan-2-ol derivatives as CARM1 inhibitors and uses thereof” (Epizyme, Inc., priority 2013, dated 2017)
